The source of these data is patent US20240059685A1, “PIEZO1 AGONISTS FOR THE PROMOTION OF BONE FORMATION” (BIOVENTURES, LLC, priority 2019, published 2024).

Entries after “also recorded” stand apart in the source; their conditions may differ.

Holding throughout (assay type): cell-based, murine
Experiment [1] has as its target T1, Piezo1 (Mus musculus, UniProt E2JF22).
T1 construct: To identify Piezo1 stimulators, we treated MLO-Y4 cells with compounds; endogenous in cells; host or cells: MLO-Y4 (murine osteocyte-like cell line); control sh-Luc cells, with sh-Piezo1 knock-down cells as the specificity control
Kind of experiment: Intracellular calcium concentration (Fluo-8) in control or Piezo1 knock-down MLO-Y4 cells. The settings on record: Piezo1 knock-down (sh-Piezo1) MLO-Y4 cells, 10 μM. The procedure:
Calcium concentration measurement. For intracellular calcium concentration measurement under fluid flow condition, 1×10^5 MLO-Y4 cells were seeded in a μ-Slide I Luer (0.4 mm) fluid chamber slide (MIDI, Germany) overnight. One hour before initiating fluid flow, the culture medium was removed and 100 μl Hank's Buffer with Hepes (HHBS) containing 4μM Fluo-8 (Abcam, Cambridge, MA) was added to the culture, as described by the manufacturer. The cells were then cultured at 37° C. for 30 minutes. After additional incubation at room temperature for 30 minutes, the chamber slide was placed under a confocal microscope in order to record the intensity of fluorescence of MLO-Y4 cells. Fluorescence was recorded for 3 minutes before starting fluid flow using HHBS and then recorded for another 10 minutes. The increase of intracellular concentration was calculated by subtracting the initial mean fluorescence. For measuring intracellular calcium concentration in cells with Yoda1 treatment, we cultured 4,000 MLO-Y4 cells per well in a 96-well-plate. We preloaded the cells with Fluo-8 as described by the manufacturer and read the intensity of the fluorescence using a Victor X3 multi-label plate reader (Perkin Elmer, Waltham, MA) immediately after the treatment. We measured the fluorescence for 5 minutes at an interval of 20 seconds. The percentage of increase in intracellular calcium concentration was calculated as (Fx-F0)/F0.
(§1) To identify Piezo1 stimulators, we treated MLO-Y4 cells with compounds Yoda1, YW-3-159, W-3-163, W-3-168-1, W-3-168-2, W-3-170, W-3-173-1, W-3-173-2, and YW-3-174. Gene expression of Wnt1, Ptgs2, and Tnfrsf11b was measured to determine the activation of Piezo1. In addition, intracellular calcium concentration was measured to determine the activity of Piezo1 channel. […] Yoda1 was used as a positive control in all experiments.

Experiment [2] deals with T1, Piezo1. Kind of experiment: qPCR gene expression of Wnt1, Ptgs2 and Tnfrsf11b in MLO-Y4 cells. As to conditions: MLO-Y4 cells, 10 μM, 2 hours. As for the experimental part:
Cell cultures. MLO-Y4 cells were cultured in α-MEM supplemented with 5% FBS, 5% BCS, and 1% penicillin/streptomycin/glutamine. Fifteen dynes/cm^2 oscillatory fluid shear stress was applied on MLO-Y4 cells at 1 Hz for 2 hours using an IBDI pump system (IBIDI, German). For Yoda1 treatment, cells were cultured in the presence of 10 μM Yoda1 (Sigma, St. Louis, MO) or DMSO for 2 hours. Immediately after the treatments, we isolated RNA from cells using RNeasy mini kit (Qiagen, German) for qPCR or RNA-seq analysis. To silence Piezo1, we generated Piezo1 shRNA expression plasmid using the following oligonucleotides in the pLKO.1-TRC cloning vector (Addgene Plasmid #10878, a gift from David Root): forward oligo: 5′-CCGGTC-[…]-3′ (SEQ ID NO: 1); reverse oligo: 5′-[…]-CGA-3′ (SEQ ID NO: 2) (Zhang et al., 2017). Yap1 shRNA (TRCN0000238432) and Taz shRNA (TRCN0000095951) were purchased from Sigma (St. Louis, MO). A shRNA against firefly luciferase was used as a control (Sigma, St. Louis, MO). For virus production, HEK293T cells were cultured in a 6-well culture plate and co-transfected with a total 3 μg of lentiviral shRNA vector, pMD2G (Addgene plasmid #12259, a gift from Didier Trono), and psPAX2 (Addgene plasmid #12260, a gift from Didier Trono) at the ratio of 2:0.9:0.4 using TransIT-LT1 transfection reagent (Mirus, Madison, WI). Culture media was changed 12 hours after transfection and viral supernatants were collected 48 hours after media change. Viral supernatants were filtered through a 0.45 μm filter and used immediately to transduce cells cultured in a 10 cm dish. Cells were then subjected to selection with G418 (100 μg/ml) or puromycin (25 μg/ml) for 5 days before treatment. To overexpress Piezo1 in MLO-Y4 cells, we transfected mPiezo1-IRES-eGFP (Addgene plasmid #80925, a gift from Ardem Patapoutian) into MLO-Y4 cells using TransIT-LT1 transfection reagent (Mirus, Madison, WI) and then treated these cells with 15 dynes/cm^2 oscillatory fluid shear stress at 1 Hz for 2 hours. Plasmids for expression of Cas9 and sgRNAs for knocking out Piezo1 in UAMS-32 cells were prepared by inserting oligonucleotides encoding the desired sgRNA sequence into the pX458 vector using the protocol recommended by the Zhang laboratory (Cong et al., 2013). Plasmids expressing Cas9 and Piezo1 sgRNAs were transfected into UAMS-32 cells using TransIT-LT1 transfection reagent (Mirus, Madison, WI). Cells were sorted into 96-well plates for single cell cloning 48 hours after transfection. Single cell colonies were then screened for homozygous deletion using the following primers: Forward: 5′-[…]-3′ (SEQ ID NO: 5), Reverse: 5′-[…]-3′ (SEQ ID NO: 6). All homozygous mutant cell colonies were then pooled together for further analysis. Cas9 transfected cells were used as a control. All in vitro cell culture experiments were performed three times with three technical replicates.
Quantitative PCR. Organs and whole bones were harvested from animals, removed of soft tissues, and stored immediately in liquid nitrogen. We prepared osteocyte-enriched bone by removing the ends of femurs and tibias and then flushing the bone marrow with PBS. We then scraped the bone surface with a scalpel and froze them in liquid nitrogen for later RNA isolation, or decalcified them for genomic DNA isolation. We isolated total RNA using TRIzol (Life technologies, NY), according to the manufacturer's instructions and prepared cDNA using High Capacity first strand cDNA synthesis kit (Life Technologies). We performed quantitative RT-PCR using the following Taqman assays from Applied Biosystems: Piezo1 (Mm01241549_m1); Piezo2 (Mm01265861_m1); Ptgs2 (Mm00478374_m1); Cyr61 (Mm00487498_m1); Wnt1 (Mm01300-555_g1); Yap1 (Mm011432-63_m1); Taz (Mm01289583_m1); Tnfsf11 Mm00441906_m1; Tnfrsf11b (Mm00435452_m1); Sost (Mm00470479_m1); and ribosomal protein S2 (Mrps2) (Mm00475529_m1). We calculated relative mRNA amounts using the ΔCt method (Livak and Schmittgen, 2001). […]

The target of experiment [3] is T1, Piezo1. The experiment can be described thus: Activation of Piezo1 in MLO-Y4 cells, overall conclusion from gene expression and calcium influx. The procedure:
as §1

T1 sequence (E2JF22 whole entry): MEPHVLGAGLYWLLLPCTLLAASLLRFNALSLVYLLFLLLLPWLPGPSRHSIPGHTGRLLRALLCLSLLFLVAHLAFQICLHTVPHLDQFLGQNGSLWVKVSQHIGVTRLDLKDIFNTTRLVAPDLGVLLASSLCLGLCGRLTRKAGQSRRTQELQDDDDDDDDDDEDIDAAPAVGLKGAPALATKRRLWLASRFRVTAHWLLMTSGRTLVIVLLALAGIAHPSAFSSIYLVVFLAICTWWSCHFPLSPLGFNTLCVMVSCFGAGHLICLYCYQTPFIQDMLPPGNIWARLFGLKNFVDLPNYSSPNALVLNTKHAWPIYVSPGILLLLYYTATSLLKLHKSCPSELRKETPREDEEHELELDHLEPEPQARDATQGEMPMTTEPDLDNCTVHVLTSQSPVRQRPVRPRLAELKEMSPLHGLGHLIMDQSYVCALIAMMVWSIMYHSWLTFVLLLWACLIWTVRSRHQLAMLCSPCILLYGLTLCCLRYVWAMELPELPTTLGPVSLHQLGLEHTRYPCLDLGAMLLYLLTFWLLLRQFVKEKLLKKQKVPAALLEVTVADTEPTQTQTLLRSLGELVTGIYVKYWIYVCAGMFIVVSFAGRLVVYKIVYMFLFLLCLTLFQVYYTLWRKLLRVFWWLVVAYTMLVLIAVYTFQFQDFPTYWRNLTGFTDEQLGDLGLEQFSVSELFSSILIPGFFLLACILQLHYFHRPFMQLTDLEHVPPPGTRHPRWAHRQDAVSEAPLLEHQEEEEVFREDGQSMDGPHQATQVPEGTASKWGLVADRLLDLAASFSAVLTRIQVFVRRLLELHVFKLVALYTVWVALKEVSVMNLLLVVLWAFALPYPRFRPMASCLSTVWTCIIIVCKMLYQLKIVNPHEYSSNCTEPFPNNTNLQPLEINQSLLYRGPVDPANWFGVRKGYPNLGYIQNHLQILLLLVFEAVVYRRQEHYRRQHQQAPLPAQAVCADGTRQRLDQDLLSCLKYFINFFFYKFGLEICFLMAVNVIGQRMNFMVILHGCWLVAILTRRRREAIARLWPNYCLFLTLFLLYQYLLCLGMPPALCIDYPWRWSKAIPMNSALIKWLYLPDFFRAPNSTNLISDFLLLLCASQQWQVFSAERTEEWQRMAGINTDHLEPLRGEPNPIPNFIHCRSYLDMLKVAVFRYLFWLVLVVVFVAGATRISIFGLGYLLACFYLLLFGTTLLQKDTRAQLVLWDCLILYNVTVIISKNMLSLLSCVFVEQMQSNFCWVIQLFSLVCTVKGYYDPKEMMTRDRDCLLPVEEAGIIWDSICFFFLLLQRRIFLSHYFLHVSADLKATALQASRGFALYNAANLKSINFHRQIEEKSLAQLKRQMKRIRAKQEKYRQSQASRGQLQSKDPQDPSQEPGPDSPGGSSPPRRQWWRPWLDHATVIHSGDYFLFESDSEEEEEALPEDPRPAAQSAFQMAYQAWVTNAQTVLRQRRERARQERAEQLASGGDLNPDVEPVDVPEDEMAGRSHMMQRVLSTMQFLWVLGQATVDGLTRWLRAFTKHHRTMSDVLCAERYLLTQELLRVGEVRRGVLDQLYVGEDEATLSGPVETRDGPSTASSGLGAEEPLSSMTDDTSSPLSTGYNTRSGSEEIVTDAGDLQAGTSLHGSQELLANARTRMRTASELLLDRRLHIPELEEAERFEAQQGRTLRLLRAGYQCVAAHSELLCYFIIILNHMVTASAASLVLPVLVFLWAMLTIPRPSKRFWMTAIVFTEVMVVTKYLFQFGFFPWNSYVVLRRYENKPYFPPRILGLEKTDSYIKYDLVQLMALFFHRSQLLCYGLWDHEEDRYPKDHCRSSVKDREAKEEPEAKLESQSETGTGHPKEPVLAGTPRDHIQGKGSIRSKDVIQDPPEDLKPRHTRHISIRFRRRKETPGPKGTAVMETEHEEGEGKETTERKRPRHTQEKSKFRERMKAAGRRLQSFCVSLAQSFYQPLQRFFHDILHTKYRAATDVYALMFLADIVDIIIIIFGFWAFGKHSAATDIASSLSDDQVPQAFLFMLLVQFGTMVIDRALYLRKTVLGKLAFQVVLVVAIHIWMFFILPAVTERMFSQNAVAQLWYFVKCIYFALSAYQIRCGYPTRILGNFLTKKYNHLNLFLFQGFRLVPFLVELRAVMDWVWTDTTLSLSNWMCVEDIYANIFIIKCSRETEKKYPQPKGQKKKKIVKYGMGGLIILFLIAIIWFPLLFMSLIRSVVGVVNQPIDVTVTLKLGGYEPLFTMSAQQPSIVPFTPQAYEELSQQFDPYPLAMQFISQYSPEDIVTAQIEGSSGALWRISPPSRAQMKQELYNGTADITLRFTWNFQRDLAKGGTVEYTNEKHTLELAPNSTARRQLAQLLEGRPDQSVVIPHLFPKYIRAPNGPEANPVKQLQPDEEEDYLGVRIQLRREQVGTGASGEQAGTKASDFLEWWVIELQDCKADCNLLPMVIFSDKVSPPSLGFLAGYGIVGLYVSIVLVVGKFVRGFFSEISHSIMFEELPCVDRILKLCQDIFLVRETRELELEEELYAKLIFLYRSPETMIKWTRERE

Consider `Clc1ccnc(Cl)c1CSc1nnc(-c2cnccn2)s1` [YW-3-159], for which the “calcium influx / increase of intracellular calcium in Piezo1 knock-down cells” value in experiment [1] was “completely blocked; also recorded: loss of their ability to stimulate calcium influx”. Moreover, in experiment [2], the “Ptgs2 expression compared with vehicle” value is reported as “higher Ptgs2 expression”, the “Tnfrsf11b expression compared with vehicle” value is recorded as “higher Tnfrsf11b expression” and the “Wnt1 expression compared with vehicle” value is “higher Wnt1 expression”. For the same compound, the “Piezo1 agonist activity (conclusion in words)” value in experiment [3] (MLO-Y4 cells) was “potent agonists for Piezo1; also recorded: potent and specific Piezo1 agonists”. Besides, in experiment [3] (MLO-Y4 cells in vitro), the “activity in activating Piezo1 compared to Yoda1” value is “comparable or superior activity”.
